Results: ChEMBL document CHEMBL2429721, “Novel 2,6-bis(4-methoxyphenyl)-1-methylpiperidin-4-one oxime esters: synthesis and a new insight into their antioxidant and antimicrobial potential” (Med Chem Res, 2013)

How the values were obtained:
Type in all cases: functional
Escherichia coli [1] = assay: Antibacterial activity against Escherichia coli ATCC 25922 assessed as growth inhibition at 1000 ug/mL after 24 hrs by agar well plate method; conditions: ATCC 25922, 24 h, read-out: DIZ
[2] = Antifungal activity against Chrysosporium keratinophilum MTCC 2827 assessed as growth inhibition at 1000 ug/mL after 72 hrs by agar well plate method
Pseudomonas aeruginosa [3] = assay: Antibacterial activity against Pseudomonas aeruginosa ATCC 27853 assessed as growth inhibition at 1000 ug/mL after 24 hrs by agar well plate method; conditions: ATCC 27853, 24 h, read-out: DIZ
Candida albicans [4] = assay: Antifungal activity against Candida albicans MTCC 3017 assessed as growth inhibition at 500 ug/mL after 72 hrs by agar well plate method; conditions: MTCC 3017, 72 h, read-out: DIZ
[5] = Antioxidant activity assessed as ferric ion reducing activity at 10 uM after 20 mins by FRAP assay
[6] = Antioxidant activity assessed as ABTS free radical scavenging activity after 30 mins
Escherichia coli [7] = assay: Antibacterial activity against Escherichia coli ATCC 25922 assessed as growth inhibition at 500 ug/mL after 24 hrs by agar well plate method; conditions: ATCC 25922, 24 h, read-out: DIZ
[8] = test system: Radical scavenging activity; assay: Antioxidant activity assessed as DPPH free radical scavenging activity after 20 mins by UV-visible spectrophotometric analysis
[9] = Antioxidant activity assessed as cupric ion reducing activity at 10 uM after 30 mins by CUPRAC assay
Staphylococcus aureus [10] = assay: Antibacterial activity against Staphylococcus aureus ATCC 25923 assessed as growth inhibition at 1000 ug/mL after 24 hrs by agar well plate method; conditions: ATCC 25923, 24 h, read-out: DIZ
Aspergillus flavus [11] = assay: Antifungal activity against Aspergillus flavus MTCC 3306 assessed as growth inhibition at 1000 ug/mL after 72 hrs by agar well plate method; conditions: MTCC 3306, 72 h, read-out: DIZ
Aspergillus flavus [12] = assay: Antifungal activity against Aspergillus flavus MTCC 3306 assessed as growth inhibition at 500 ug/mL after 72 hrs by agar well plate method; conditions: MTCC 3306, 72 h, read-out: DIZ
Staphylococcus aureus [13] = assay: Antibacterial activity against Staphylococcus aureus ATCC 25923 assessed as growth inhibition at 500 ug/mL after 24 hrs by agar well plate method; conditions: ATCC 25923, 24 h, read-out: DIZ
Candida albicans [14] = assay: Antifungal activity against Candida albicans MTCC 3017 assessed as growth inhibition at 1000 ug/mL after 72 hrs by agar well plate method; conditions: MTCC 3017, 72 h, read-out: DIZ
[15] = Antifungal activity against Chrysosporium keratinophilum MTCC 2827 assessed as growth inhibition at 500 ug/mL after 72 hrs by agar well plate method
Pseudomonas aeruginosa [16] = assay: Antibacterial activity against Pseudomonas aeruginosa ATCC 27853 assessed as growth inhibition at 500 ug/mL after 24 hrs by agar well plate method; conditions: ATCC 27853, 24 h, read-out: DIZ

| Structure (SMILES) | zone of inhibition at 1000 µg/mL (Escherichia coli [1]) [mm] | inhibition zone (IZ) [2] [mm] | zone of inhibition at 1000 µg/mL (Pseudomonas aeruginosa [3]) [mm] | zone of inhibition at 500 µg/mL (Candida albicans [4]) [mm] | Activity [5] | IC50 [6] [µM] | zone of inhibition at 500 µg/mL (Escherichia coli [7]) [mm] | IC50 [8] [µM] | Activity [9] | zone of inhibition at 1000 µg/mL (Staphylococcus aureus [10]) [mm] | zone of inhibition at 1000 µg/mL (Aspergillus flavus [11]) [mm] | zone of inhibition at 500 µg/mL (Aspergillus flavus [12]) [mm] | zone of inhibition at 500 µg/mL (Staphylococcus aureus [13]) [mm] | zone of inhibition at 1000 µg/mL (Candida albicans [14]) [mm] | inhibition zone (IZ) [15] [mm] | zone of inhibition at 500 µg/mL (Pseudomonas aeruginosa [16]) [mm] |
| --- | --- | --- | --- | --- | --- | --- | --- | --- | --- | --- | --- | --- | --- | --- | --- | --- |
| COc1ccc(C2CC(=NOC(=O)c3cccc(O)c3)CC(c3ccc(OC)cc3)N2C)cc1 (stereo not given) | 6 | 1 | 5 | 1 | 0.321 | 34 | 5 | 21 | 0.265 | 6 | 1 | 0 | 4 | 3 | 0 | 3 |
| COc1ccc(C2CC(=NOC(=O)c3ccc(Cl)cc3)CC(c3ccc(OC)cc3)N2C)cc1 (stereo not given) | 16 | 8 | 16 | 10 | 0.258 | 135 | 10 | 98 | 0.192 | 12 | 8 | 5 | 8 | 11 | 7 | 12 |
| COc1ccc(C2CC(=NOC(=O)c3ccc(C)cc3)CC(c3ccc(OC)cc3)N2C)cc1 (stereo not given) | 3 | 1 | 2 | 1 | 0.154 | 368 | 1 | 143 | 0.127 | 3 | 2 | 1 | 1 | 2 | 2 | 2 |
| COc1ccc(C2CC(=NOC(=O)c3cc(O)cc(O)c3)CC(c3ccc(OC)cc3)N2C)cc1 (stereo not given) | 3 | 0 | 5 | 3 | 0.352 | 19 | 4 | 12 | 0.363 | 4 | 1 | 0 | 4 | 3 | 1 | 4 |
| COc1ccc(C2CC(=NOC(=O)c3ccccc3OC(C)=O)CC(c3ccc(OC)cc3)N2C)cc1 (stereo not given) | 4 | 3 | 5 | 5 | 0.179 | 350 | 2 | 132 | 0.131 | 5 | 2 | 1 | 2 | 4 | 2 | 4 |
| OC(Cn1cncn1)(Cn1cncn1)c1ccc(F)cc1F [FLUCONAZOLE] |  | 17 |  | 20 |  |  |  |  |  |  | 13 | 11 |  | 22 | 15 |  |
| COc1ccc(C2CC(=NOC(=O)c3cc(OC)c(OC)c(OC)c3)CC(c3ccc(OC)cc3)N2C)cc1 (stereo not given) | 4 | 5 | 5 | 3 | 0.286 | 93 | 3 | 71 | 0.232 | 5 | 2 | 3 | 3 | 3 | 2 | 3 |
| COc1ccc(C(=O)ON=C2CC(c3ccc(OC)cc3)N(C)C(c3ccc(OC)cc3)C2)cc1 (stereo not given) | 2 | 3 | 4 | 5 | 0.31 | 68 | 1 | 32 | 0.245 | 3 | 5 | 4 | 1 | 7 | 3 | 3 |
| CN[C@@H]1[C@H](O[C@H]2[C@H](O[C@H]3[C@H](O)[C@@H](O)[C@H](N=C(N)N)[C@@H](O)[C@@H]3N=C(N)N)O[C@@H](C)[C@]2(O)C=O)O[C@@H](CO)[C@H](O)[C@H]1O [STREPTOMYCIN] | 16 |  | 16 |  |  |  | 10 |  |  | 15 |  |  | 10 |  |  | 13 |
| COc1ccc(C2CC(=NOC(=O)c3ccccc3)CC(c3ccc(OC)cc3)N2C)cc1 (stereo not given) | 2 | 2 | 2 | 2 | 0.132 | 375 | 1 | 152 | 0.111 | 3 | 1 | 1 | 2 | 3 | 1 | 1 |
| COc1ccc(C2CC(=NOC(=O)c3ccc(OC)cc3OC)CC(c3ccc(OC)cc3)N2C)cc1 (stereo not given) | 5 | 4 | 6 | 4 | 0.296 | 80 | 3 | 56 | 0.236 | 4 | 4 | 3 | 2 | 6 | 3 | 6 |
| COc1ccc(C2CC(=NOC(=O)c3ccccc3O)CC(c3ccc(OC)cc3)N2C)cc1 (stereo not given) | 5 | 5 | 4 | 2 | 0.33 | 29 | 3 | 19 | 0.272 | 4 | 3 | 2 | 4 | 6 | 3 | 3 |
| COc1ccc(C2CC(=NOC(=O)c3cc([N+](=O)[O-])cc([N+](=O)[O-])c3)CC(c3ccc(OC)cc3)N2C)cc1 (stereo not given) | 9 | 5 | 9 | 3 | 0.195 | 312 | 4 | 125 | 0.145 | 6 | 4 | 3 | 3 | 8 | 5 | 6 |
| COc1ccc(C2CC(=NOC(=O)c3ccc(Br)cc3)CC(c3ccc(OC)cc3)N2C)cc1 (stereo not given) | 10 | 6 | 9 | 8 | 0.265 | 121 | 6 | 92 | 0.215 | 8 | 5 | 4 | 6 | 9 | 4 | 7 |
| COc1ccc(C2CC(=NOC(=O)c3ccc(F)cc3)CC(c3ccc(OC)cc3)N2C)cc1 (stereo not given) | 17 | 9 | 19 | 10 | 0.236 | 152 | 12 | 86 | 0.163 | 13 | 12 | 10 | 9 | 16 | 7 | 15 |
